Test results published in patent US11369653B2, “Traditional Chinese medicine composition for treating cardiovascular and cerebrovascular disease, preparation method therefor and use thereof” (priority 2018, dated 2022).

Key:
[1] = system: thrombin induced platelet aggregation in rats; experiment: Thrombin induced rat platelet aggregation after 15 days gavage; type: in vivo; settings: SD rats, 6.75 mg/kg by gavage for 15 days
Description: Platelet aggregation rate is a detection index of platelet function. The higher the platelet aggregation rate, the greater the possibility of thrombosis. In arteriosclerosis, coronary heart disease, cerebral infarction, hypertension, diabetes and other thrombotic diseases, platelet aggregation rate is often increased. […] Therefore, the determination of platelet aggregation rate can be used to observe the curative effect and screen drugs. In this study, thrombin induced rat platelet aggregation model was used to evaluate the inhibitory effect of the traditional Chinese medicine composition on platelet aggregation. […]
After the last administration, 3% Pentobarbital Sodium was injected intraperitoneally for anesthesia (40 mg/kg). […] After 10 minutes of centrifugation at 800 rpm, the upper platelet rich plasma (PRP) was aspirated and the number of platelets was counted. […]
A small magnetic rod and 300 μl PRP were added into a square cup, which was preheated for 5 minutes in a constant temperature hole, and 300 μl PPP was added into another square cup. […] The maximum platelet aggregation rate was measured, wherein 3-4 parallel tests were performed for each blood sample and the average value was taken.

[2] = system: arteriovenous bypass thrombosis in rats; experiment: Arteriovenous bypass thrombosis in rats; type: in vivo; settings: SD rats, 6.75 mg/kg by gavage for 15 days
Protocol: After 5 days of adaptive feeding, the animals were randomly divided into blank control group, positive control group (Plavix group, 6.75 mg/kg), and four test substance groups (100, 200, 400 and 800 mg/kg), with 20 rats in each group. The animals were administered by gavage for 15 consecutive days, once a day.
After the last administration, 3% Pentobarbital Sodium was injected intraperitoneally for anesthesia (40 mg/kg). The right common carotid artery and left external jugular vein were separated. A 6 cm long medical surgical suture (No. 0) was placed in the middle of a polyethylene tube, which was filled with normal saline and inserted into the right common carotid artery and the left external jugular vein respectively to form an arteriovenous vascular loop. After 15 minutes, the blood flow was cut off, and the suture was taken out and weighed.
In this experiment, the classical rat arteriovenous bypass was used to form the bypass arteriovenous blood flow. When the platelets in the arterial blood flow contact the rough surface of the suture, they adhere to the suture, and the platelet aggregation forms platelet thrombosis around the surface of the suture. When platelet adhesion and aggregation function is inhibited, the weight of thrombosis become smaller. Therefore, the adhesion and aggregation function of platelets can be measured by thrombus weight.

COC(=O)[C@H](c1ccccc1Cl)N1CCc2sccc2C1 [Plavix, Clopidogrel Hydrogen Sulphate]
Maximum platelet aggregation rate [1]: 35.8±29.7% | Net weight of suture [2]: 20.2 ± 4.8 mg
